# Measured values published in US10011615B2, “Heterobicyclo-substituted [1,2,4]triazolo[1,5-c]quinazolin-5-amine compounds with A2A anatagonist properties” (Merck Sharp & Dohme Corp., priority 2012, dated 2018).
# Target: T1, human A2a receptor (Homo sapiens, UniProt P29274)
# T1 construct: purchased Perkin-Elmer RBHA2AM400UA; host or cells: HEK293 cell membranes
# Assay: A2a receptor competition binding assay using Scintillation Proximity technology
# Details: membranes from HEK293 cells expressing human A2a receptor; 0.5 nM tritiated radioligand; SPA beads; 1 h room temperature
# In short: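 Membranes of HEK293 cells expressing human A2a, pretreated with adenosine deaminase, incubated 1 h at room temperature with 0.5 nM tritiated pyrazolotriazolopyrimidine antagonist (final) and compound (3000 to 0.15 nM) on WGA SPA beads in Ca/Mg-free PBS with 10 mM MgCl2. Ki from EC50 via Cheng-Prusoff.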
# T1 sequence (P29274 whole entry): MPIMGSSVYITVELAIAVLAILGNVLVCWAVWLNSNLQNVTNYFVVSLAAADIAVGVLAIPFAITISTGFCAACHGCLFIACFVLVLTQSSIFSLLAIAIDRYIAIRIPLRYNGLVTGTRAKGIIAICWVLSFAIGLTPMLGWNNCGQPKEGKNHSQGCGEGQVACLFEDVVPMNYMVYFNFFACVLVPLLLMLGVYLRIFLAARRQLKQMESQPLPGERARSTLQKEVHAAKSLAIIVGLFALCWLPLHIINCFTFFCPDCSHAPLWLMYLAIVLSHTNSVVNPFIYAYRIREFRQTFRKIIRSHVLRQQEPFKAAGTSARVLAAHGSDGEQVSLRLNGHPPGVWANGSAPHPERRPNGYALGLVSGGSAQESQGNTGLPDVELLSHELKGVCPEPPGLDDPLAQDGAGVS
row,SMILES,EC50
1,CCC(Cc1nc2c3cccc(OC)c3nc(N)n2n1)N1Cc2cccnc2C1 (stereo not shown) [Ex-111],11.9 nM
2,"COc1cccc2c1nc(N)n1nc(CCN3CCc4cccnc4C3)nc21 [Ex-45, 2-(2-(5,6-dihydro-1,7-naphthyridin-7(8H)-yl)ethyl)-7-methoxy-[1,2,4]triazolo[1,5-c]quinazolin-5-amine]",4.3 nM
3,"COc1cccc2c1nc(N)n1nc(CN3CCN(C)Cc4cc(Cl)ccc43)nc21 [Ex-136, 2-((7-chloro-4-methyl-2,3,4,5-tetrahydro-1H-benzo[e][1,4]diazepin-1-yl)methyl)-7-methoxy-[1,2,4]triazolo[1,5-c]quinazolin-5-amine]",191 nM
4,COc1cccc2c1nc(N)n1nc(CN3Cc4ccc(Cl)nc4C3)nc21 [Ex-137],16.1 nM
5,"COc1cccc2c1nc(N)n1nc(CCN3Cc4ccc(Cl)nc4C3)nc21 [Ex-5, 2-(2-(2-chloro-5H-pyrrolo[3,4-b]pyridin-6(7H)-yl)ethyl)-7-methoxy-[1,2,4]triazolo[1,5-c]quinazolin-5-amine]",4.7 nM
6,"COc1cccc2c1nc(N)n1nc(CCN3CCCn4nc(C#N)cc4C3)nc21 [Ex-61, 5-(2-(5-amino-7-methoxy-[1,2,4]triazolo[1,5-c]quinazolin-2-yl)ethyl)-5,6,7,8-tetrahydro-4H-pyrazolo[1,5-a][1,4]diazepine-2-carbonitrile]",2.5 nM
7,"CC[C@H](Cc1nc2c3cccc(OC)c3nc(N)n2n1)N1Cc2nc(C)oc2C1 [Ex-248, (R)-7-methoxy-2-(2-(2-methyl-4H-pyrrolo[3,4-d]oxazol-5(6H)-yl)butyl)-[1,2,4]triazolo[1,5-c]quinazolin-5-amine]",1 nM
8,CCN(CC)c1ccnc2c1CCN(CCc1nc3c4cccc(OC)c4nc(N)n3n1)C2 [Ex-74],4.3 nM
9,"COc1cccc2c1nc(N)n1nc(C[C@@H](C)N3CCc4nc(C)sc4C3)nc21 [Ex-216, (R)-7-methoxy-2-(2-(2-methyl-6,7-dihydrothiazolo[5,4-c]pyridin-5(4H)-yl)propyl)-(1,2,4]triazolo[1,5-c]quinazolin-5-amine]",3 nM
10,"COc1cccc2c1nc(N)n1nc(CN3CCc4ccc(-c5ccccc5C(F)(F)F)cc4C3)nc21 [Ex-185, 7-methoxy-2-((7-(2-(trifluoromethyl)phenyl)-3,4-dihydroisoquinolin-2(1H)-yl)methyl)-[1,2,4]triazolo[1,5-c]quinazolin-5-amine]",11.2 nM
11,COc1cccc2c1nc(N)n1nc(CN3CCc4ccccc4C3)nc21 [Ex-121],0.8 nM
12,"COc1cccc2c1nc(N)n1nc(CCN3Cc4ccc(F)cc4C3)nc21 [Ex-48, 2-(2-(5-fluoroisoindolin-2-yl)ethyl)-7-methoxy-[1,2,4]triazolo[1,5-c]quinazolin-5-amine]",4.6 nM
13,"COc1cccc2c1nc(N)n1nc(CN3CCc4ccc(NC(=O)c5ccccn5)cc4C3)nc21 [Ex-166, N-(2-((5-amino-7-methoxy-[1,2,4]triazolo[1,5-c]quinazolin-2-yl)methyl)-1,2,3,4-tetrahydroisoquinolin-7-yl)picolinamide]",4.5 nM
14,"COc1cccc2c1nc(N)n1nc(CCN3CCc4[nH]nc(C)c4C3)nc21 [Ex-37, 7-methoxy-2-(2-(3-methyl-6,7-dihydro-1H-pyrazolo[4,3-c]pyridin-5(4H)-yl)ethyl)-[1,2,4]triazolo[1,5-c]quinazolin-5-amine]",6.4 nM
15,COc1ccc2c(nc(N)n3nc(CCN4Cc5cccnc5C4)nc23)c1OC [Ex-97],238 nM
16,Nc1nc2c(F)cccc2c2nc(CCN3Cc4ccc(F)cc4C3)nn12 [Ex-85],22.2 nM
17,"COc1cccc2c1nc(N)n1nc(CN3Cc4ccc(F)cc4C3)nc21 [Ex-117, 2-((5-fluoroisoindolin-2-yl)methyl)-7-methoxy-[1,2,4]triazolo[1,5-c]quinazolin-5-amine]",5.9 nM
18,COc1cccc2c1nc(N)n1nc(C[C@@H](N3Cc4cccnc4C3)C(F)(F)F)nc21 [Ex-110],39.9 nM
19,COc1cccc2c1nc(N)n1nc(C[C@@H](C(F)F)N3Cc4cccnc4C3)nc21 [Ex-103],8.3 nM
20,"COc1cccc2c1nc(N)n1nc(CCN3CCc4nc(C5CC5)sc4C3)nc21 [Ex-30, 2-(2-(2-cyclopropyl-6,7-dihydrothiazolo[5,4-c]pyridin-5(4H)-yl)ethyl)-7-methoxy-[1,2,4]triazolo[1,5-c]quinazolin-5-amine]",1.1 nM
21,"N#Cc1cccc2c1nc(N)n1nc(CN3CCc4cccnc4C3)nc21 [Ex-196, 5-amino-2-((5,6-dihydro-1,7-naphthyridin-7(8H)-yl)methyl)[1,2,4]triazolo[1,5-c]quinazoline-7-carbonitrile]",274 nM
22,"COc1cccc2c1nc(N)n1nc(CN3CCc4ccc(-c5cnc(C(F)(F)F)nc5)cc4C3)nc21 [Ex-179, 7-methoxy-2-((7-(2-(trifluoromethyl)pydmidin-5-yl)-3,4-dihydroisoquinolin-2(1H)-yl)methyl)-[1,2,4]triazolo[1,5-c]quinazolin-5-amine]",6.1 nM

row,SMILES,EC50
1,"COc1cccc2c1nc(N)n1nc(CCN3Cc4cnn(C)c4C3)nc21 [Ex-246, 7-methoxy-2-(2-(1-methylpyrrolo[3,4-c]pyrazol-5(1H,4H,6H)-yl)ethyl)-[1,2,4]triazolo[1,5-c]quinazolin-5-amine]",5.4 nM
2,COc1cccc2c1nc(N)n1nc(CCN3Cc4nc(-c5ccccc5)[nH]c4C3)nc21 [Ex-34],1.7 nM
3,"COc1cccc2c1nc(N)n1nc(CCN3CCc4c(sc(C5CC5)c4C#N)C3)nc21 [Ex-15, 6-(2-(5-amino-7-methoxy-[1,2,4]triazolo[1,5-c]quinazolin-2-yl)ethyl)-2-cyc1opropyl-4,5,6,7-tetrahydrothieno[2,3-c]pyridine-3-carbonitri1e]",2.2 nM
4,"COc1cccc2c1nc(N)n1nc(C[C@H](C)N3CCc4oc(C)nc4C3)nc21 [Ex-215, (S)-7-methoxy-2-(2-(2-methyl-6,7-dihydrooxazolo[4,5-c]pyridin-5(4H)-yl)propyl)-[1,2,4]triazolo[1,5-c]quinazolin-5-amine]",5.7 nM
5,COc1cccc2c1nc(N)n1nc(C[C@H](C(F)F)N3Cc4cccnc4C3)nc21 [Ex-102],55.2 nM
6,"COc1cccc2c1nc(N)n1nc(CN3CCc4ccc(-c5cnn(C)c5C(F)(F)F)cc4C3)nc21 [Ex-182, 7-methoxy-2-((7-(1-methyl-5-(trifluoromethyl)-1H-pyrazol-4-yl)-3,4-dihydroisoquinolin-2(1H)-yl)methyl)-[1,2,4]triazolo[1,5-c]quinazolin-5-amine]",2.8 nM
7,"COc1cccc2c1nc(N)n1nc(CCN3Cc4ccccc4C(C)(C)C3)nc21 [Ex-62, 2-(2-(4,4-dimethyl-3,4-dihydroisoquinolin-2(1H)-yl)ethyl)-7-methoxy-[1,2,4]triazolo[1,5-c]quinazolin-5-amine]",6.2 nM
8,"COc1cccc2c1nc(N)n1nc(CN3Cc4nc(C(C)C)sc4C3)nc21 [Ex-149, 2-((2-isopropyl-4H-pyrrolo[3,4-d]thiazol-5(6H)-yl)methyl)-7-methoxy-[1,2,4]triazolo[1,5-c]quinazolin-5-amine]",17.5 nM
9,CCc1nnc2n1CCN(CCc1nc3c4cccc(F)c4nc(N)n3n1)C2 [Ex-86],6.7 nM
10,"COc1cccc2c1nc(N)n1nc(CN3CCCCc4ccccc43)nc21 [Ex-128, 7-methoxy-2-((2,3,4,5-tetrahydro-1H-benzo[b]azepin-1-yl)methyl)-[1,2,4]biazolo[1,5-c]quinazolin-5-amine]",2 nM
11,Nc1nc2c(OCCF)cccc2c2nc(CN3CCc4cccnc4C3)nn12 [Ex-202],147 nM
12,"COc1cccc2c1nc(N)n1nc(CCN3Cc4nc(C5CC5)sc4C3)nc21 [Ex-241, 2-(2-(2-cyclopropyl-4H-pyrrolo[3,4-d]thiazol-5(6H)-yl)ethyl)-7-methoxy-[1,2,4]triazolo[1,5-c]quinazolin-5-amine]",7.3 nM
13,Nc1nc2cc(F)ccc2c2nc(CCN3CCc4ccccc4C3)nn12 [Ex-93],37.5 nM
14,"CCc1ncc2n1CCN(CCc1nc3c4cccc(OC)c4nc(N)n3n1)C2 [Ex-13, 2-(2-(3-ethyl-5,6-dihydroimidazo[1,5-a]pyrazin-7(8H)-yl)ethyl)-7-methoxy-[1,2,4]triazolo[1,5-c]quinazolin-5-amine]",2.2 nM
15,"COc1cccc2c1nc(N)n1nc(CCN3CCc4c(c(C(F)(F)F)nn4C)C3)nc21 [Ex-32, 7-methoxy-2-(2-(1-methyl-3-(trifluoromethyl)-677-dihydro-1H-pyrazolo[4,3-c]pyridin-5(4H)-yl)ethyl)-[1,2,4]triazolo[1,5-c]quinazolin-5-amine]",1.4 nM
16,"COc1cccc2c1nc(N)n1nc(CN3CCc4ccc(CC(=O)Nc5cccnc5)cc4C3)nc21 [Ex-173, 2-(2-((5-amino-7-methoxy-[1,2,4]triazolo[1,5-c]quinazolin-2-yl)methyl)-1,2,3,4-tetrahydroisoquinolin-7-yl)-N-(pyridine-3-yt)acetamide]",9.1 nM
17,COc1cccc2c1nc(N)n1nc(CN3CCc4c(Br)ccnc4C3)nc21 [Ex-148],7.2 nM
18,"COc1cccc2c1nc(N)n1nc(CCN3CCn4c(cnc4C(C)C)C3)nc21 [Ex-8, 2-(2-(3-isopropyl-5,6-dihydroimidazo[1,5-a]pyrazin-7(8H)-yl)ethyl)-7-methoxy-[1,2,4]triazolo[1,5-c]quinazolin-5-amine]",2.2 nM
19,COc1cccc2c1nc(N)n1nc(C[C@@H](C)N3Cc4cccnc4C3)nc21 [Ex-107],6.9 nM
20,"COc1cccc2c1nc(N)n1nc(CCN3CCc4noc(C(F)(F)F)c4C3)nc21 [Ex-9, 7-methoxy-2-(2-(3-(trifluoromethyl)-6,7-dihydroisoxazolo[4,3-c]pyridin-5(4H)-yl)ethyl)-[1,2,4]triazolo[1,5-c]quinazolin-5-amine]",2.1 nM
21,"Cc1cccc2c1nc(N)n1nc(CCN3CCc4ccccc4C3)nc21 [Ex-90, 2-(2-(3,4-dihydroisoquinolin-2(1H)-yl)ethyl)-7-methyl-[1,2,4]triazolo[1,5-c]quinazolin-5-amine]",27.9 nM
